This experiment is described as follows: Inhibitory activity against clostridium histolyticum collagenase.

This passage reports Ki results from BindingDB's records for doi:10.1021/jm010087e (The University of Western Australia, 2001).

A word on the Ki: it is the dissociation constant of the complex between target and ligand, obtained from inhibition or displacement. Read a low Ki as tighter binding. Molecule `CC(C(=O)NO)N(Cc1ccccc1[N+](=O)[O-])S(=O)(=O)c1ccc(Br)cc1` (configuration not stated) [2-[(4-Bromo-benzenesulfonyl)-(2-nitro-benzyl)-amino]-N-hydroxy-propionamide] came in with a Ki of 33 nM.

As to `CC(C(=O)O)N(Cc1ccccc1[N+](=O)[O-])S(=O)(=O)c1ccc(Br)cc1` (configuration not stated) [2-[(4-Bromo-benzenesulfonyl)-(2-nitro-benzyl)-amino]-propionic acid], the affinity corresponds to a Ki of 10000 nM.

The molecule `CC(C(=O)NO)N(Cc1ccccc1[N+](=O)[O-])S(=O)(=O)c1ccc(Cl)cc1` (configuration not stated) [2-[(4-Chloro-benzenesulfonyl)-(2-nitro-benzyl)-amino]-N-hydroxy-propionamide] came in with a Ki of 32 nM.

In turn, `CC(C(=O)O)N(Cc1ccccc1[N+](=O)[O-])S(=O)(=O)c1ccc(Cl)cc1` (configuration not stated) [2-[(4-Chloro-benzenesulfonyl)-(2-nitro-benzyl)-amino]-propionic acid] returned a Ki of 11000 nM.

Molecule `CC(C(=O)NO)N(Cc1ccccc1[N+](=O)[O-])S(=O)(=O)c1ccc(F)cc1` (configuration not stated) [2-[(4-Fluoro-benzenesulfonyl)-(2-nitro-benzyl)-amino]-N-hydroxy-propionamide] had a Ki of 30 nM.

`CC(C(=O)O)N(Cc1ccccc1[N+](=O)[O-])S(=O)(=O)c1ccc(F)cc1` (configuration not stated) [2-[(4-Fluoro-benzenesulfonyl)-(2-nitro-benzyl)-amino]-propionic acid]: the Ki came out at 12000 nM.

`CC(C(=O)O)N(Cc1ccccc1[N+](=O)[O-])S(=O)(=O)c1ccc(I)cc1` (configuration not stated) [2-[(4-Iodo-benzenesulfonyl)-(2-nitro-benzyl)-amino]-propionic acid] showed an inhibition constant Ki of 11000 nM.

`COc1ccc(S(=O)(=O)N(Cc2ccccc2[N+](=O)[O-])C(C)C(=O)O)cc1` (configuration not stated) [2-[(4-Methoxy-benzenesulfonyl)-(2-nitro-benzyl)-amino]-propionic acid] had a Ki of 5700 nM.

Regarding `CC(C(=O)O)N(Cc1ccccc1[N+](=O)[O-])S(=O)(=O)c1ccc([N+](=O)[O-])cc1` (configuration not stated) [2-[(4-Nitro-benzenesulfonyl)-(2-nitro-benzyl)-amino]-propionic acid], the Ki is 5000 nM.

`CC(C(=O)O)N(Cc1ccccc1[N+](=O)[O-])S(=O)(=O)c1ccc(NC(=O)OC(C)(C)C)cc1` (configuration not stated) [2-[(4-tert-Butoxycarbonylamino-benzenesulfonyl)-(2-nitro-benzyl)-amino]-propionic acid] displayed a Ki of 2600 nM. Against the preceding molecule, the Ki is about 1.9-fold lower.

Consider `CC(C(=O)NO)N(Cc1ccccc1[N+](=O)[O-])S(=O)(=O)c1cccc2c(N(C)C)cccc12` (configuration not stated) [2-[(5-Dimethylamino-naphthalene-1-sulfonyl)-(2-nitro-benzyl)-amino]-N-hydroxy-propionamide], for which the Ki came out at 9 nM.

`CC(C(=O)O)N(Cc1ccccc1[N+](=O)[O-])S(=O)(=O)c1cccc2c(N(C)C)cccc12` (configuration not stated) [2-[(5-Dimethylamino-naphthalene-1-sulfonyl)-(2-nitro-benzyl)-amino]-propionic acid] returned a Ki of 2100 nM. Against the preceding molecule, the Ki is about 230-fold higher.

Consider `CC(C(=O)NO)N(Cc1ccccc1[N+](=O)[O-])S(=O)(=O)C(F)(F)C(F)(F)C(F)(F)C(F)(F)C(F)(F)C(F)(F)C(F)(F)C(F)(F)F` (configuration not stated) [2-[(Heptadecafluorooctane-1-sulfonyl)-(2-nitro-benzyl)-amino]-N-hydroxy-propionamide], for which the Ki was 8 nM.

In turn, `CC(C(=O)O)N(Cc1ccccc1[N+](=O)[O-])S(=O)(=O)C(F)(F)C(F)(F)C(F)(F)C(F)(F)C(F)(F)C(F)(F)C(F)(F)C(F)(F)F` (configuration not stated) [2-[(Heptadecafluorooctane-1-sulfonyl)-(2-nitro-benzyl)-amino]-propionic acid] had a Ki of 1700 nM. This Ki lies about 210-fold higher than the previous one.

`CC(C(=O)O)N(Cc1ccccc1[N+](=O)[O-])S(=O)(=O)c1cccc2ccccc12` (configuration not stated) [2-[(Naphthalene-1-sulfonyl)-(2-nitro-benzyl)-amino]-propionic acid] yielded a Ki of 1600 nM.

In turn, `CC(C(=O)O)N(Cc1ccccc1[N+](=O)[O-])S(=O)(=O)c1ccc2ccccc2c1` (configuration not stated) [2-[(Naphthalene-2-sulfonyl)-(2-nitro-benzyl)-amino]-propionic acid] displayed an inhibitory constant (Ki) of 1800 nM. The Ki values of the last two molecules are within 1.5-fold of each other.

As to `Cc1ccccc1S(=O)(=O)NC(=O)N(Cc1ccccc1[N+](=O)[O-])C(C)C(=O)O` (configuration not stated) [2-[({[(2-methylphenyl)sulfonyl]amino}carbonyl)(2-nitrobenzyl)amino]propanoic acid], the Ki was 3000 nM. This Ki lies about 1.7-fold higher than the previous one.

The molecule `CC(C(=O)NO)N(Cc1ccccc1[N+](=O)[O-])C(=O)NS(=O)(=O)c1ccc(Cl)cc1` (configuration not stated) [2-[({[(4-chlorophenyl)sulfonyl]amino}carbonyl)(2-nitrobenzyl)amino]-N-hydroxypropanamide] had a Ki of 7 nM.

`CC(C(=O)O)N(Cc1ccccc1[N+](=O)[O-])C(=O)NS(=O)(=O)c1ccc(Cl)cc1` (configuration not stated) [2-[({[(4-chlorophenyl)sulfonyl]amino}carbonyl)(2-nitrobenzyl)amino]propanoic acid] registered a Ki of 2700 nM.

For `CC(C(=O)NO)N(Cc1ccccc1[N+](=O)[O-])C(=O)NS(=O)(=O)c1ccc(F)cc1` (configuration not stated) [2-[({[(4-fluorophenyl)sulfonyl]amino}carbonyl)(2-nitrobenzyl)amino]-N-hydroxypropanamide], the Ki turned out to be 8 nM.

Take `CC(C(=O)O)N(Cc1ccccc1[N+](=O)[O-])C(=O)NS(=O)(=O)c1ccc(F)cc1` (configuration not stated) [2-[({[(4-fluorophenyl)sulfonyl]amino}carbonyl)(2-nitrobenzyl)amino]propanoic acid]: the Ki was found to be 3000 nM. This Ki is about 380-fold higher than that of the molecule before.

`Cc1ccc(S(=O)(=O)NC(=O)N(Cc2ccccc2[N+](=O)[O-])C(C)C(=O)O)cc1` (configuration not stated) [2-[({[(4-methylphenyl)sulfonyl]amino}carbonyl)(2-nitrobenzyl)amino]propanoic acid] gave a Ki of 3100 nM.

In the case of `CC(C(=O)NO)N(Cc1ccccc1[N+](=O)[O-])S(=O)(=O)c1ccccc1` (configuration not stated) [2-[Benzenesulfonyl-(2-nitro-benzyl)-amino]-N-hydroxy-propionamide], the Ki is 59 nM.

`CC(C(=O)O)N(Cc1ccccc1[N+](=O)[O-])S(=O)(=O)c1ccccc1` (configuration not stated) [2-[Benzenesulfonyl-(2-nitro-benzyl)-amino]-propionic acid] came in with a Ki of 27000 nM.

Turning to `CC(C(=O)O)N(Cc1ccccc1[N+](=O)[O-])S(C)(=O)=O` (configuration not stated) [2-[Methanesulfonyl-(2-nitro-benzyl)-amino]-propionic acid], the affinity, expressed as Ki, was 22000 nM. The Ki values of the last two molecules are within 1.5-fold of each other.

In turn, `CC(C(=O)NO)N(Cc1ccccc1[N+](=O)[O-])S(=O)(=O)N(C)C` (configuration not stated) [2-[[(dimethylamino)sulfonyl](2-nitrobenzyl)amino]-N-hydroxypropanamide] showed a Ki of 79 nM.

Molecule `CC(C(=O)O)N(Cc1ccccc1[N+](=O)[O-])S(=O)(=O)N(C)C` (configuration not stated) [2-[[(dimethylamino)sulfonyl](2-nitrobenzyl)amino]propanoic acid] showed a Ki of 43000 nM.

Molecule `CC(C(=O)O)N(Cc1ccccc1[N+](=O)[O-])S(=O)(=O)c1cccc(C(=O)O)c1` (configuration not stated) [3-[(1-Carboxy-ethyl)-(2-nitro-benzyl)-sulfamoyl]-benzoic acid] registered a Ki of 2100 nM.

`CC(C(=O)NO)N(Cc1ccccc1[N+](=O)[O-])S(=O)(=O)c1cccc(C(=O)O)c1` (configuration not stated) [3-[(1-Hydroxycarbamoyl-ethyl)-(2-nitro-benzyl)-sulfamoyl]-benzoic acid] came in with a Ki of 8 nM. Against the preceding molecule, the Ki is about 260-fold lower.

In the case of `CC(C(=O)O)N(Cc1ccccc1[N+](=O)[O-])S(=O)(=O)c1ccc(C(=O)O)cc1` (configuration not stated) [4-[(1-Carboxy-ethyl)-(2-nitro-benzyl)-sulfamoyl]-benzoic acid], the Ki worked out at 1900 nM.

`CC(C(=O)NO)N(Cc1ccccc1[N+](=O)[O-])S(=O)(=O)c1ccc(C(=O)O)cc1` (configuration not stated) [4-[(1-Hydroxycarbamoyl-ethyl)-(2-nitro-benzyl)-sulfamoyl]-benzoic acid] showed an inhibition constant (Ki) of 7 nM.

`CC(C(=O)NO)N(Cc1ccccc1[N+](=O)[O-])C(=O)Nc1cccc2ccccc12` (configuration not stated) [N-Hydroxy-2-[3-naphthalen-1-yl-1-(2-nitro-benzyl)-ureido]-propionamide]: the inhibition constant Ki worked out at 10 nM. This Ki and that of the molecule before are within 1.5-fold of each other.

In turn, `CC(C(=O)NO)N(Cc1ccccc1[N+](=O)[O-])S(=O)(=O)c1ccccc1[N+](=O)[O-]` (configuration not stated) [N-Hydroxy-2-[(2-nitro-benzenesulfonyl)-(2-nitro-benzyl)-amino]-propionamide] had an inhibitory constant (Ki) of 11 nM. This Ki and that of the molecule before are within 1.5-fold of each other.

Take `Cc1cc(C)c(S(=O)(=O)N(Cc2ccccc2[N+](=O)[O-])C(C)C(=O)NO)c(C)c1` (configuration not stated) [N-Hydroxy-2-[(2-nitro-benzyl)-(2,4,6-trimethyl-benzenesulfonyl)-amino]-propionamide]: the Ki is 21 nM.

In turn, `CC(C(=O)NO)N(Cc1ccccc1[N+](=O)[O-])Sc1ccccc1[N+](=O)[O-]` (configuration not stated) [N-Hydroxy-2-[(2-nitro-benzyl)-(2-nitro-phenylsulfanyl)-amino]-propionamide] registered a Ki of 12 nM.

`CC(C(=O)NO)N(Cc1ccccc1[N+](=O)[O-])S(=O)(=O)c1cccc(C(F)(F)F)c1` (configuration not stated) [N-Hydroxy-2-[(2-nitro-benzyl)-(3-trifluoromethyl-benzenesulfonyl)-amino]-propionamide] gave a Ki of 5 nM.

For `CC(C(=O)NO)N(Cc1ccccc1[N+](=O)[O-])Sc1ccc([N+](=O)[O-])cc1` (configuration not stated) [N-Hydroxy-2-[(2-nitro-benzyl)-(4-nitro-phenylsulfanyl)-amino]-propionamide], the Ki was 13 nM. Against the preceding molecule, the Ki is about 2.6-fold higher.

`CC(C(=O)NO)N(Cc1ccccc1[N+](=O)[O-])S(=O)(=O)C(F)(F)C(F)(F)C(F)(F)C(F)(F)F` (configuration not stated) [N-Hydroxy-2-[(2-nitro-benzyl)-(nonafluorobutane-1-sulfonyl)-amino]-propionamide] returned a Ki of 10 nM.

Molecule `CC(C(=O)NO)N(Cc1ccccc1[N+](=O)[O-])S(=O)(=O)c1cccc2cccnc12` (configuration not stated) [N-Hydroxy-2-[(2-nitro-benzyl)-(quinoline-8-sulfonyl)-amino]-propionamide] came in with a Ki of 9 nM.

Molecule `CC(C(=O)NO)N(Cc1ccccc1[N+](=O)[O-])S(=O)(=O)c1cccs1` (configuration not stated) [N-Hydroxy-2-[(2-nitro-benzyl)-(thiophene-2-sulfonyl)-amino]-propionamide] displayed a Ki of 10 nM. The Ki values of the last two molecules are within 1.5-fold of each other.

In turn, `Cc1ccc(S(=O)(=O)N(Cc2ccccc2[N+](=O)[O-])C(C)C(=O)NO)cc1` (configuration not stated) [N-Hydroxy-2-[(2-nitro-benzyl)-(toluene-4-sulfonyl)-amino]-propionamide] gave a Ki of 41 nM.

`CC(C(=O)NO)N(Cc1ccccc1[N+](=O)[O-])S(=O)(=O)Cc1ccccc1` (configuration not stated) [N-Hydroxy-2-[(2-nitro-benzyl)-phenylmethanesulfonyl-amino]-propionamide] returned a Ki of 55 nM.
